Experimental data reported in US20250144179A1, “PEPTIDE HORMONE TO PREVENT OR TREAT VASOSPASM, BRAIN INJURY OR CEREBRAL EDEMA” (UNIVERSITY OF FLORIDA RESEARCH FOUNDATION, INCORPORATED, priority 2022, published 2025).
“Also recorded” adds a separate entry of the source.

What was measured:
Assay type in all cases: in vivo, mouse
[1] = Mean arterial pressure in the aneurysm rupture model; conditions: before and after aneurysm induction, adropin vs vehicle
Procedure: (§1) Synthetic adropin^34-76 peptide was supplied from Bachem (Bubendorf, Switzerland) and diluted in 0.1% BSA in saline. 0.1% BSA in saline was used as vehicle control for all experiments. Adropin (450 nmol/kg) or an equivalent volume of vehicle was delivered via intraperitoneal injection 15 minutes post-SAH. For experiments ending at 24 hours post-SAH, an identical dose of adropin/vehicle was given again 12 hours later. For experiments ending 7 days post-SAH, adropin/vehicle was given again on days 1, 3 & 5 post-SAH. In the aneurysm rupture model, adropin was given at a dose of 450 nmol/kg starting 3 days before aneurysm induction (elastase injection). Adropin was given every other day until sacrifice
Cerebral aneurysms were induced as previously described. Briefly, mice were anesthetized with ketamine (100 mg/kg) and xylazine (10 mg/kg) before the left common carotid artery and the right renal artery were ligated with 7-0 silk suture (Ethicon Inc., Somerville, New Jersey). Carotid and renal artery ligations are hereafter referred to as ligations. […]

[2] = tested on: murine intracranial aneurysm rupture model; assay: Intracranial aneurysm rupture model; conditions: 450 nmol/kg every other day from 3 days before aneurysm induction, vs vehicle
Procedure: as §1
Cerebral aneurysms were induced as previously described. Briefly, mice were anesthetized with ketamine (100 mg/kg) and xylazine (10 mg/kg) before the left common carotid artery and the right renal artery were ligated with 7-0 silk suture (Ethicon Inc., Somerville, New Jersey). Carotid and renal artery ligations are hereafter referred to as ligations. One week after ligations, mice were anesthetized and 10 μL of 1.0 U/mL porcine pancreatic elastase solution (Worthington Biochemical Corp, Lakewood, New Jersey) diluted in phosphate buffered saline (PBS, Invitrogen, Carlsbad, California) was stereotactically injected into the right basal cistern at 1.2 mm rostral of bregma, 0.7 mm lateral of midline, and 5.3 mm deep to the surface of the brain. A subcutaneous osmotic pump (Alzet, Cupertino, California) placed in the right flank immediately after elastase injection and continually infused angiotensin II (Bachem, Torrence, California) at a dose of 1000 ng/kg/min. Elastase injection and osmotic pump placement are hereafter referred to as aneurysm induction. Following recovery from aneurysm induction, mice were fed a diet of 8% NaCl with 0.12% beta-aminopropionitrile (BAPN; Harlan Laboratories, Indianapolis, Indiana).
Three weeks post-aneurysm induction, mice were deeply anesthetized with ketamine/xylazine. A bilateral anterolateral thoracotomy with transverse sternotomy was made to expose the heart and great vessels. The right atrium was punctured with the tip of a 23 g needle as an outlet before the left ventricle was sequentially perfused with normal saline, 4% paraformaldehyde (PFA), and Coomassie Brilliant Blue dye in a 20% gelatin solution. Brains were carefully removed from the skull and inspected under a dissection microscope for the presence of aneurysms as evidenced by outpouching of cerebral arteries in or connected to the circle of Willis. Aneurysm rupture was identified by the presence of extravasated blood near an identified aneurysm. […]

[3] = tested on: ZO-1; assay: Western blot of ZO-1 in brain after SAH; conditions: wild-type mice, adropin 450 nmol/kg i.p. vs vehicle
Procedure: as §1
(§2) SAH was modeled using the anterior circulation single autologous blood injection method^25,33 with minor adjustments. Mice were anesthetized with ketamine (100 mg/kg) and xylazine (10 mg/kg) before removing hair from scalp and cleaning with serial betadine—saline washes. The tail was also prepped from the base extending 1 cm distally. Mice were then fixed into a stereotaxic frame and body temperature maintained at 37° C. The scalp was incised along the sagittal suture from bregma to the nasal bone. […]
At 24 hours or 7 days post-SAH, mice were deeply anesthetized and perfused with 10 mL of ice-cold PBS. […] Samples were centrifuged, supernatant collected, and protein quantified via Bradford assay. […]

[4] = tested on: wild-type mice, SAH model; assay: Corner-turn preference test (sensorimotor deficits) after SAH
Procedure: as §1, with “Adropin (450 nmol/kg) or an equivalent volume of vehicle was delivered via intraperitoneal injection 15 minutes post-SAH.” left out
as §2, with “bone. The skin was reflected and a burr hole was drilled 5.0 mm rostral of bregma and 0.5 mm right laterally to avoid puncturing dural venous sinuses.” for “bone.”

Substance: adropin (CHSRSADVDSLSESSPNSSPGPCPEKAPPPQKPSHEGSYLLQP) [Synthetic adropin^34-76 peptide from Bachem]
- systemic blood pressure / mean arterial pressure (MAP) [1]: No difference was found in blood pressure; also recorded: no effect on MAP before or after aneurysm induction
- aneurysm formation [2]: did not significantly reduce aneurysm formation
- aneurysm rupture [2]: did not significantly reduce aneurysm formation (FIG. 9C) or aneurysm rupture
- deficit-free (symptom-free) survival [2]: extended deficit-free survival compared to vehicle
- proportion of aneurysm ruptures that were symptom-producing [2]: less likely to be symptom-producing
- ZO-1 expression (immunoblot) [3]: preserved the expression of occludin and ZO-1
- sensorimotor deficits ([4]; treatment initiated at 24 hours post-SAH): ability of adropin treatment to improve sensorimotor deficits was maintained
- corner turn preference (sensorimotor deficit) ([4]; up to one week post-SAH, treatment started 15 minutes post-SAH): reducing this sensorimotor deficit and normalizing corner turn preference
